In PubChem BioAssay (NCI):
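Cells were grown in 96-well plates and exposed to each compound for 48 hours at five concentrations; endpoints were interpolated linearly between bracketing concentrations, or set to the highest concentration if not reached. TGI marks complete inhibition of growth.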 Where a SMILES comes first, the peptide text is derived from it. [ ]: non-standard residue; d: D form.

Key:
Test in all cases: NCI tumour cell line growth inhibition, 48 h
M14 melanoma = system: M14 melanoma
TK-10 renal = system: TK-10 renal
OVCAR-3 ovarian = system: OVCAR-3 ovarian
HCC-2998 colon = system: HCC-2998 colon
HOP-62 NSCLC = system: HOP-62 NSCLC
SK-MEL-2 melanoma = system: SK-MEL-2 melanoma
NCI-H226 lung = system: NCI-H226 lung
UACC-257 melanoma = system: UACC-257 melanoma
BT-549 breast = system: BT-549 breast
OVCAR-8 ovarian = system: OVCAR-8 ovarian
UACC-62 melanoma = system: UACC-62 melanoma

Structure (SMILES)	TGI (M14 melanoma) [µM]	TGI (TK-10 renal) [µM]	TGI (OVCAR-3 ovarian) [µM]	TGI (HCC-2998 colon) [µM]	TGI (HOP-62 NSCLC) [µM]	TGI (SK-MEL-2 melanoma) [µM]	TGI (NCI-H226 lung) [µM]	TGI (UACC-257 melanoma) [µM]	TGI (BT-549 breast) [µM]	TGI (OVCAR-8 ovarian) [µM]	TGI (UACC-62 melanoma) [µM]
Cc1ccc(C(=O)N/N=C(\N=Nc2ccc(C(=O)O)cc2)c2ccc(N(CCC#N)CCC#N)cc2C)cc1	> 100	> 100	> 100	> 100	> 100	> 100	> 100	> 100	> 100	> 100	–
O=C(Nc1ccc(Cl)cc1)c1cc(S(=O)(=O)Nc2nnc3c(Cl)cc(C(F)(F)F)cn23)c(S)cc1Cl	> 100	> 100	> 100	> 100	> 100	74.6	> 100	> 100	> 100	> 100	–
CC(=O)Nc1cccc(N=NN(C)C)c1	–	–	> 100	> 100	> 100	> 100	> 100	> 100	–	> 100	> 100
Cc1ccc(N(C)S(=O)(=O)c2ccccc2[N+](=O)[O-])cc1	44.5	> 100	> 100	–	> 100	> 100	> 100	> 100	61.7	> 100	–
O=C(c1ccccc1)N1C(=S)N(c2ccccn2)C(=Nc2ccccc2)C1=Nc1ccccc1	> 100	88.2	45.6	> 100	> 84	34.6	> 100	> 74.6	–	> 100	> 41.3
CNc1nc(C(N)=O)c(N)s1	> 100	> 100	> 100	–	> 100	> 100	> 100	> 100	> 100	> 100	> 100
Cc1n(Cc2ccccc2)nc2sc(N)n[n+]12	> 100	> 100	> 100	–	> 100	> 100	> 100	> 100	> 100	> 100	> 100
CCOC(=O)c1cccc(NC(=O)CI)c1	0.664	2.19	0.759	4.34	2.44	2.4	–	2.95	1.48	0.687	1.87
CN1CC2CN(Cc3ccccc3)CCN2c2cccnc21 (centres undefined)	> 100	> 100	> 100	–	> 100	> 100	> 100	> 100	> 100	> 100	> 100
CCOC(=O)C(Cl)(NC(=O)OCc1ccccc1)C(F)(F)F (centres undefined)	> 100	> 100	> 100	> 100	> 100	> 100	> 100	> 100	–	> 100	–
N#Cc1c(-c2ccccc2)c(CN2CCCCC2)c(=O)n2c1[nH]c1ccccc12	> 100	> 100	58.3	> 100	91.5	> 100	> 100	> 100	> 100	> 100	–
O=C(c1ccc(Cl)cc1)N(C(=S)OCCOc1ccccc1)c1ccccc1	32.4	> 100	30.9	35.2	54	45.7	–	39.5	52.3	48.3	35.1
Cn1cc(-c2csc(-c3cn(C)c4ccccc34)n2)c2ccccc21	> 100	> 100	64	–	45.7	> 100	> 100	> 100	> 100	> 100	> 100
N#Cc1c(O)c(/C=N/c2ncccn2)c(=O)n2c1[nH]c1ccccc12	> 100	> 100	> 100	> 100	–	> 100	> 100	> 100	> 100	> 100	–
OC1CSc2nc3ccccc3n2C1 (centres undefined)	> 100	> 100	> 100	> 100	–	–	> 100	> 100	> 100	> 100	> 100
CC(Oc1ccc(OCC2CCCCC2)cc1)C(=O)NCc1ccco1 (centres undefined)	42.6	> 100	> 100	> 100	–	59.3	94	70.4	–	> 100	> 100
O=C1c2ccccc2N2Oc3ccccc3C12c1ccccc1 (centres undefined)	> 100	–	–	> 100	> 100	–	> 100	> 100	–	> 100	> 100
Nc1nc(-c2ccco2)cc(-c2ccc(CO)o2)n1	> 100	> 100	> 100	–	> 100	> 100	> 100	–	–	> 100	> 100
CNC1(C(=O)O)CC1	> 100	> 100	> 100	> 100	> 100	–	> 100	> 100	–	> 100	> 100
CC(=O)CC1=C(OC(C)C)C2(OCCO2)C1O (centres undefined)	> 100	> 100	> 100	–	> 100	> 100	> 100	> 100	> 100	> 100	> 100
CC(C)C[C@H](NC(=O)[C@H](CC(C)C)NC(=O)[C@@H](Cc1c[nH]c2ccccc12)NC(=O)[C@H](Cc1ccccc1)NC(=O)[C@@H](Cc1c[nH]c2ccccc12)NC(=O)[C@H](CCC(N)=O)NC(=O)[C@H](CCC(N)=O)NC(=O)[C@H]1CCCN1C(=O)[C@@H](N)CCCCN)C(N)=O (H-K[dP]QQ[dW]F[dW]LL-NH2)	–	–	> 100	> 100	> 100	> 100	> 100	> 100	–	> 100	> 100
c1ccc2c(c1)OC(N1CCCC1)c1cnc(N3CCOCC3)nc1-2 (centres undefined)	> 100	> 100	> 100	–	> 100	–	> 100	74.2	72.8	> 100	> 100
